Source: PMC6757289, “Design and Characterization of SGK3-PROTAC1, an Isoform Specific SGK3 Kinase PROTAC Degrader” (ACS Chemical Biology, 2019)
Where two headings read alike, the source gives them in different places.

Key:
Test in all cases: kinase profiling panel
Assay type in all cases: biochemical
Details in all cases: read-out: % Activity Remaining
[1] = biological target: T1, CHK1 (Homo sapiens, UniProt O14757)
T1 sequence (O14757 1-476): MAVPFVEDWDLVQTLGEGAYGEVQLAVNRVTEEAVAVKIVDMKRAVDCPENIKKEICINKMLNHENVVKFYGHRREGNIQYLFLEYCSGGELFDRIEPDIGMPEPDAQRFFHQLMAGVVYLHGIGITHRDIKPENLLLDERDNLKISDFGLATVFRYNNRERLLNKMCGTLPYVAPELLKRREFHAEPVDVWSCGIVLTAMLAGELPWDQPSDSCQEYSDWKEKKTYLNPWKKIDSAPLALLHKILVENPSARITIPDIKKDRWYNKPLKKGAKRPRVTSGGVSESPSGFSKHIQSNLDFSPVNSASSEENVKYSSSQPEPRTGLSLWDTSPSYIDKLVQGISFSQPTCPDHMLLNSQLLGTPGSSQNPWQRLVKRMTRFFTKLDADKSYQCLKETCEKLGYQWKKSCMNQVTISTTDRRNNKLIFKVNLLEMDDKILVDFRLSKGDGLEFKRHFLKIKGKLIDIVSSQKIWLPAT
Source text: (§1) Protein kinase profiling against a Dundee panel of 140 protein kinases was undertaken at the International Centre for Protein Kinase Profiling. The result for each kinase was presented as a mean kinase activity of the reaction taken in triplicate relative to a control sample treated with DMSO. Assay conditions and abbreviations are available at http://www.kinase-screen.mrc.ac.uk.

[2] = biological target: CSK (Homo sapiens, UniProt P41240)
Source text: as §1

[3] = biological target: T2, EPH-B1 (Homo sapiens, UniProt P54762)
T2 sequence (P54762 18-984): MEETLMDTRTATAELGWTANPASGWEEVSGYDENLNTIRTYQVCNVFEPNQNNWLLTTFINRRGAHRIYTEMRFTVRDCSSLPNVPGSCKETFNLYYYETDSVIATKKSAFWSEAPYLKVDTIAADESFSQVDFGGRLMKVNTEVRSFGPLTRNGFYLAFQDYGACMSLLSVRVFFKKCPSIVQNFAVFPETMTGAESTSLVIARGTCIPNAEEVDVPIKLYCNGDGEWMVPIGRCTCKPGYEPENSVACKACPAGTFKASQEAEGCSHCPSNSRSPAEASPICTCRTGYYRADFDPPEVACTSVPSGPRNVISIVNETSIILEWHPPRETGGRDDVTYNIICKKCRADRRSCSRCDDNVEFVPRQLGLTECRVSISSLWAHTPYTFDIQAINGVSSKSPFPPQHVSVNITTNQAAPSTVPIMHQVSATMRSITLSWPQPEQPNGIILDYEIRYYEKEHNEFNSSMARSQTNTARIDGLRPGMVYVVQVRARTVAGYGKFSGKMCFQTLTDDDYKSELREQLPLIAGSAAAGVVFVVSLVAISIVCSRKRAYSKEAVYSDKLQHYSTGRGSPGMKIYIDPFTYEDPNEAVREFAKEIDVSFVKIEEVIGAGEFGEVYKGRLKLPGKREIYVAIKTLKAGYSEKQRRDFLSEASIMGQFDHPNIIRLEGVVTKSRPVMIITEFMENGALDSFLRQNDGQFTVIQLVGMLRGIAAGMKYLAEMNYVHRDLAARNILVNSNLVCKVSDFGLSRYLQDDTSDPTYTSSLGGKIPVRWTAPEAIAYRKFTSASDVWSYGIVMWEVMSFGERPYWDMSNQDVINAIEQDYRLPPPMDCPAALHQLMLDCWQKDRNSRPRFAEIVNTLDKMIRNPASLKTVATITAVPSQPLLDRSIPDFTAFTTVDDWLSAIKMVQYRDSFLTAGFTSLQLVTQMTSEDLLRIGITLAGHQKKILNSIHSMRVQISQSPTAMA
Source text: as §1

[4] = biological target: T3, ERK8 (Homo sapiens, UniProt Q8TD08)
T3 sequence (Q8TD08 1-544): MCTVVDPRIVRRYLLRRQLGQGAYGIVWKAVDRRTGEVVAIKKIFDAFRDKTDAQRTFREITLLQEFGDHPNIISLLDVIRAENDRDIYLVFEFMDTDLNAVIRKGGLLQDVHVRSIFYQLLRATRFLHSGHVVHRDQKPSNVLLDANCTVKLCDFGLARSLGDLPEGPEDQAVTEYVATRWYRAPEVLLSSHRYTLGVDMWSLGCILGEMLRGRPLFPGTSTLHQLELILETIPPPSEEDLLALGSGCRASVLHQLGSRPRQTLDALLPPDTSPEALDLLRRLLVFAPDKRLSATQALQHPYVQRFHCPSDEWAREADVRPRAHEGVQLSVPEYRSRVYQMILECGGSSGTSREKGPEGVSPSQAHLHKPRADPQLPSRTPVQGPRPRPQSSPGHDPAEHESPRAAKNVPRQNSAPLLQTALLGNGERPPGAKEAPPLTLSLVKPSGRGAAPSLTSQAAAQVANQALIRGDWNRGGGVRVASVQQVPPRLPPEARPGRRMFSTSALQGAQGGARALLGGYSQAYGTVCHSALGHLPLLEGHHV
Source text: as §1

[5] = biological target: T4, IKK beta (Homo sapiens, UniProt O14920)
T4 sequence (O14920 1-756): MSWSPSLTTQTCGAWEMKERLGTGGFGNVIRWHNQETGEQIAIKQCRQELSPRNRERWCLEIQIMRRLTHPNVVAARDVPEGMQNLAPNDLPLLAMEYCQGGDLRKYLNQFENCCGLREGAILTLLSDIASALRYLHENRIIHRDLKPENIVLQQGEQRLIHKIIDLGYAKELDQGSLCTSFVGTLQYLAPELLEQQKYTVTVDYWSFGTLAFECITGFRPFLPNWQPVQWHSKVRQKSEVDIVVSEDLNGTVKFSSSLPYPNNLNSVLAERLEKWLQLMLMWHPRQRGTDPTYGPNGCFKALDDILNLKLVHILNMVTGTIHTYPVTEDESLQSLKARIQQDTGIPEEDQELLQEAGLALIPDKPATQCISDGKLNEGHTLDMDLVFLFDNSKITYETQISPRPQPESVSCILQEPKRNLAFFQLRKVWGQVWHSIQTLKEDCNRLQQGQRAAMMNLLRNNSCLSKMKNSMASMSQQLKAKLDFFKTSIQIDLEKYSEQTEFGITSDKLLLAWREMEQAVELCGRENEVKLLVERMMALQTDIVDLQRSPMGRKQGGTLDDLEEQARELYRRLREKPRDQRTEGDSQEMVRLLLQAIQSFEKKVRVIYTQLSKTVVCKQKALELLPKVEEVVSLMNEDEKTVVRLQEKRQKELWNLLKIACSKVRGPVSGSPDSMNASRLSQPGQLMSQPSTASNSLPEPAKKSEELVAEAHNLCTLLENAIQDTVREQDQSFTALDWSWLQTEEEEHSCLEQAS
Source text: as §1

[6] = biological target: MST3 (Homo sapiens, UniProt Q9Y6E0)
Source text: as §1

Chain of MST3 (Q9Y6E0 whole entry): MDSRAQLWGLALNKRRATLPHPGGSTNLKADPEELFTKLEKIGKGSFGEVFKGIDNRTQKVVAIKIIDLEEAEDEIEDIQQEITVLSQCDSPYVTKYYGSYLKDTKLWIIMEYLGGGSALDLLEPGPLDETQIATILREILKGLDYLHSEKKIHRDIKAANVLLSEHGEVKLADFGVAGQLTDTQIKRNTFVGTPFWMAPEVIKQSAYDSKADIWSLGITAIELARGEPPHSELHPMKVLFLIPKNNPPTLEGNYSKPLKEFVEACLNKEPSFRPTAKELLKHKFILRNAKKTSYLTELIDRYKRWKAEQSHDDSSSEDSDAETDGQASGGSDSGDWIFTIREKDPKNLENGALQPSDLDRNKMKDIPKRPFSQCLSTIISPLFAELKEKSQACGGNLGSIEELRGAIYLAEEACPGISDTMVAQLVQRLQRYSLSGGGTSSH
Chain of CSK (P41240 whole entry): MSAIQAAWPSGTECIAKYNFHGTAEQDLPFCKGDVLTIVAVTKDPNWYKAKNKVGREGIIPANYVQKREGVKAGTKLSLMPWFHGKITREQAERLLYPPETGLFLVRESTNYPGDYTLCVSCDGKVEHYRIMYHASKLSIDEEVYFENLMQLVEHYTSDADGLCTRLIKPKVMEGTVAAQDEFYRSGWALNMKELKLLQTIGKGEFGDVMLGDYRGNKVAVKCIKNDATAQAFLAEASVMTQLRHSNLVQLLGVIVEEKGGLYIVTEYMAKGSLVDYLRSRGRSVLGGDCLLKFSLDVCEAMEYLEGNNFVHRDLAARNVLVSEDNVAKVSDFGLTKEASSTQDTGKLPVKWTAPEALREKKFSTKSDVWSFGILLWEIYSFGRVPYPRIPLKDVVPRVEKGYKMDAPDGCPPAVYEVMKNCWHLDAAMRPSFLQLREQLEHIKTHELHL

Structure (SMILES)	remaining activity at 1 µM [1] [%]	remaining activity at 1 µM [2] [%]	remaining activity at 1 µM [3] [%]	remaining activity at 1 µM [4] [%]	remaining activity at 1 µM [5] [%]	remaining activity at 1 µM [6] [%]	remaining activity at 1 µM ([1]; 1 µM) [%]	remaining activity at 1 µM ([2]; 1 µM) [%]	remaining activity at 1 µM ([3]; 1 µM) [%]	remaining activity at 1 µM ([4]; 1 µM) [%]	remaining activity at 1 µM ([5]; 1 µM) [%]	remaining activity at 1 µM ([6]; 1 µM) [%]
COc1ccc(Cl)c(S(=O)(=O)Nc2ccc(-c3nc(OC[C@H]4CNCCO4)c4c(C)n[nH]c4n3)cc2)c1 [290-R, reference compound]	95	66	117	18	102	57	–	–	–	–	–	–
Cc1ccc(F)c(S(=O)(=O)Nc2ccc(-c3nc(OC[C@H]4CNCCO4)c4cn[nH]c4n3)cc2)c1 [308-R, reference compound]	109	96	96	49	67	79	–	–	–	–	–	–
Cc1ccc(F)c(S(=O)(=O)Nc2ccc(-c3nc(OC[C@H]4CN(CCCCCCOCCOCCOCC(=O)N[C@H](C(=O)N5C[C@H](O)C[C@H]5C(=O)NCc5ccc(-c6scnc6C)cc5)C(C)(C)C)CCO4)c4cn[nH]c4n3)cc2)c1 [SGK3-PROTAC1]	–	–	–	–	–	–	111	118	100	94	100	102
Cc1ccc(F)c(S(=O)(=O)Nc2ccc(-c3nc(OC[C@H]4CN(CCCCCCOCCOCCOCC(=O)N[C@H](C(=O)N5C[C@@H](O)C[C@H]5C(=O)NCc5ccc(-c6scnc6C)cc5)C(C)(C)C)CCO4)c4cn[nH]c4n3)cc2)c1 [cisSGK3-PROTAC1]	–	–	–	–	–	–	126	113	108	86	101	113
